# Test results: patent US12389911B2, “Benzimidazole compound or salt thereof, agricultural and horticultural insecticidal and acaricidal agent containing said compound, and method for using same” (NIHON NOHYAKU CO., LTD., priority 2019, dated 2025)
# Test system: Two-spotted spider mite (Tetranychus urticae)
# Experiment: Acaricidal action on two-spotted spider mite (kidney bean leaf disk spray)
# Assay type: in vivo
# Conditions: 500 ppm, adult females, 25° C., two days after treatment
# Protocol: Acaricidal Action on Two-Spotted Spider Mite (Tetranychus urticae)
# Leaf disk having a diameter of 2 cm was prepared by leaves of kidney bean, and the leaf disk was placed on the wetted filter paper. Adult hens of two-spotted spider mite were inoculated on the wetted filter paper, and then 50 ml of an agrochemical dispersion, prepared by diluting a formulation containing the benzimidazole compound represented by the general formula (1) of the present invention or salt thereof as an active ingredient to adjust each of the concentrations to 500 ppm, was sprayed on turntable uniformly. After the spraying, it was allowed to stand in a thermostatic chamber at 25° C. Two days after the treatment of an agrochemical dispersion, the dead mites were counted, the corrected mortality rate was calculated according to the formula shown below, and the acaricidal efficacy was evaluated according to the criteria of Test Example 2. This test was conducted in duplicate using 10 adult hens of two-spotted spider per plot. Corrected mortality(%)=(Number of dead mites in a non-treatment plot−Number of dead mites in a treatment plot)/(Number of dead mites in a non-treatment plot)×100 [Expression 4]
row,SMILES,"acaricidal efficacy (corrected mortality rate), activity level"
1,CCCCCc1cn(-c2nc3ccccc3n2S(=O)(=O)CC)cn1 [Compound 1-2],D or higher
2,CCCCCCCCc1cn(-c2nc3ccccc3n2S(C)(=O)=O)cn1 [Compound 1-3],D or higher
3,CCS(=O)(=O)n1c(-n2cnc(C(C)(C)C)c2)nc2ccccc21 [Compound 1-5],D or higher
4,CCS(=O)(=O)n1c(-n2cnc(C#CC3CC3)c2)nc2ccccc21 [Compound 1-7],D or higher
5,CCS(=O)(=O)n1c(-n2cnc(CCc3ccc(C(C)(C)C)cc3)c2)nc2ccccc21 [Compound 1-10],D or higher
6,CCS(=O)(=O)n1c(-n2cnc(CCc3ccc(Br)cc3)c2)nc2ccccc21 [Compound 1-14],D or higher
7,CCS(=O)(=O)n1c(-n2cnc(COc3ccc(C(F)(F)F)cc3)c2)nc2ccccc21 [Compound 1-16],D or higher
8,CCS(=O)(=O)n1c(-n2cnc(COc3ccc(OC(F)(F)F)cc3)c2)nc2ccccc21 [Compound 1-17],D or higher
9,CCS(=O)(=O)n1c(-n2cnc(C#Cc3ccccc3)c2)nc2ccccc21 [Compound 1-18],D or higher
10,CCS(=O)(=O)n1c(-n2cnc(I)c2)nc2ccccc21 [Compound 1-20],D or higher
11,CCS(=O)(=O)n1c(-n2cnc(C(F)(F)F)c2)nc2ccccc21 [Compound 1-21],D or higher
12,CCS(=O)(=O)n1c(-n2cnc(C(F)(F)C(F)(F)C(F)(F)C(F)(F)C(F)(F)C(F)(F)F)c2)nc2ccccc21 [Compound 1-28],D or higher
13,CCS(=O)(=O)n1c(-n2cnc(C#N)c2)nc2ccccc21 [Compound 1-31],D or higher
14,CCS(=O)(=O)n1c(-n2cnc(C(=O)OC(C)(C)C)c2)nc2ccccc21 [Compound 1-33],D or higher
15,CCS(=O)(=O)n1c(-n2cnc(C(=O)OC(C)(C)c3ccccc3)c2)nc2ccccc21 [Compound 1-36],D or higher
16,CCCCCCCCc1cnn(-c2nc3ccccc3n2S(=O)(=O)CC)c1 [Compound 2-2],D or higher
17,CCS(=O)(=O)n1c(-n2cc(CCc3ccc(C(F)(F)F)cc3)cn2)nc2ccccc21 [Compound 2-4],D or higher
18,CCS(=O)(=O)n1c(-n2cc(CCc3ccc(F)cc3)c(C(F)(F)F)n2)nc2ccccc21 [Compound 2-5],D or higher
19,CCS(=O)(=O)n1c(-n2cc(CCc3ccc(OC)cc3)c(C(F)(F)F)n2)nc2ccccc21 [Compound 2-6],D or higher
20,CCCCCCC#Cc1cnn(-c2nc3ccccc3n2S(=O)(=O)CC)c1 [Compound 2-7],D or higher

row,SMILES,"acaricidal efficacy (corrected mortality rate), activity level"
1,CCS(=O)(=O)n1c(-n2cc(C#Cc3ccc(F)cc3)c(C(F)(F)F)n2)nc2ccccc21 [Compound 2-9],D or higher
2,CCS(=O)(=O)n1c(-n2cc(Br)c(C(F)(F)F)n2)nc2ccccc21 [Compound 2-14],D or higher
3,CCS(=O)(=O)n1c(-n2cc(I)c(C(F)(F)F)n2)nc2ccccc21 [Compound 2-16],D or higher
4,CCS(=O)(=O)n1c(-n2nc(C(F)(F)F)c(Br)c2C)nc2ccccc21 [Compound 2-18],D or higher
5,CCS(=O)(=O)n1c(-n2cc(Cc3ccccc3)c(C(F)(F)F)n2)nc2ccccc21 [Compound 2-22],D or higher
6,CCS(=O)(=O)n1c(-n2cc(C(C)=O)c(C(F)(F)F)n2)nc2ccccc21 [Compound 2-25],D or higher
7,CCS(=O)(=O)n1c(-n2cc(C(=O)N(C)OC)c(C(F)(F)F)n2)nc2ccccc21 [Compound 2-30],D or higher
8,CCS(=O)(=O)n1c(-n2cc(C(=O)SC(C)(C)C)c(C(F)(F)F)n2)nc2ccccc21 [Compound 2-31],D or higher
9,CCOC(=O)c1cn(-c2nc3ccccc3n2S(=O)(=O)CC)nc1C(F)F [Compound 2-33],D or higher
10,CCS(=O)(=O)n1c(-n2cc(I)c(Br)n2)nc2ccccc21 [Compound 2-35],D or higher
11,CCOC(=O)/C=C/c1ccn(-c2nc3ccccc3n2S(=O)(=O)CC)n1 [Compound 2-36],D or higher
12,CCCCOc1nn(-c2nc3ccccc3n2S(=O)(=O)CC)cc1Br [Compound 2-37],D or higher
13,CCOC(=O)c1cn(-c2nc3ccccc3n2S(=O)(=O)CC)nc1OCC(F)(F)C(F)(F)F [Compound 2-41],D or higher
14,CCS(=O)(=O)n1c(-n2cc(Br)c(OC(F)F)n2)nc2ccccc21 [Compound 2-42],D or higher
15,CCS(=O)(=O)n1c(-n2cc(Cl)c(C(=O)OC(C)(C)C)n2)nc2ccccc21 [Compound 2-44],D or higher
16,CCS(=O)(=O)n1c(-n2cc(Br)c(C(=O)OC(C)(C)C)n2)nc2ccccc21 [Compound 2-45],D or higher
17,CCS(=O)(=O)n1c(-n2cc(C(=O)OC(C)(C)C)c(Cl)n2)nc2ccccc21 [Compound 2-47],D or higher
18,CCS(=O)(=O)n1c(-n2cc(C(=O)OC(C)(C)C)c(Br)n2)nc2ccccc21 [Compound 2-48],D or higher
19,CCS(=O)(=O)n1c(-n2cc(C(=O)OC(C)(C)C)c(C3CC3)n2)nc2ccccc21 [Compound 2-50],D or higher
20,CCS(=O)(=O)n1c(-n2cc(C(=O)OC(C)(C)C)c(OCC(F)(F)C(F)(F)F)n2)nc2ccccc21 [Compound 2-52],D or higher

row,SMILES,"acaricidal efficacy (corrected mortality rate), activity level"
1,CCS(=O)(=O)n1c(-n2cc([S+]([O-])C(C)C)c(C(F)(F)F)n2)nc2ccccc21 (centres unmarked) [Compound 2-55],D or higher
2,CCS(=O)(=O)n1c(-n2cc(S(=O)(=O)C(C)C)c(C(F)(F)F)n2)nc2ccccc21 [Compound 2-56],D or higher
3,CCS(=O)(=O)n1c(-n2cc(C(=O)OC(C)(C)C)c(C(C)C)n2)nc2ccccc21 [Compound 2-57],D or higher
4,CCS(=O)(=O)n1c(-n2cc(C(=O)OC(C)(C)C)c(C(C)(C)C)n2)nc2ccccc21 [Compound 2-58],D or higher
5,CCS(=O)(=O)n1c(-n2cc(C(=O)c3ccccc3)c(C(F)(F)F)n2)nc2ccccc21 [Compound 2-59],D or higher
6,CCS(=O)(=O)n1c(-n2cc(CCC(=O)OC(C)(C)C)c(C(F)(F)F)n2)nc2ccccc21 [Compound 2-61],D or higher
7,CCS(=O)(=O)n1c(-n2cc(C(=O)OC(C)(C)C)c(C(=O)OC(C)(C)C)n2)nc2ccccc21 [Compound 2-62],D or higher
8,CCCc1nn(-c2nc3ccccc3n2S(=O)(=O)CC)cc1C(=O)OC(C)(C)C [Compound 2-72],D or higher
9,CCOc1nn(-c2nc3ccccc3n2S(=O)(=O)CC)cc1C(=O)OC(C)(C)C [Compound 2-73],D or higher
10,CCCOc1nn(-c2nc3ccccc3n2S(=O)(=O)CC)cc1C(=O)OC(C)(C)C [Compound 2-74],D or higher
11,CCS(=O)(=O)n1c(-n2cc(C(=O)OC(C)(C)C)c(OCC(F)(F)F)n2)nc2ccccc21 [Compound 2-76],D or higher
12,CCS(=O)(=O)n1c(-n2cc(C(=O)OC(C)(C)C)c(OCC(F)F)n2)nc2ccccc21 [Compound 2-77],D or higher
13,CCS(=O)(=O)n1c(-n2cc(C(=O)OC(C)(C)C)c(OCC(F)(F)C(F)F)n2)nc2ccccc21 [Compound 2-78],D or higher
14,CCS(=O)(=O)n1c(-n2cc(C(=O)OC)c(C(C)(C)C)n2)nc2ccccc21 [Compound 2-79],D or higher
15,CCOC(=O)c1cn(-c2nc3ccccc3n2S(=O)(=O)CC)nc1/C=C/C1CC1 [Compound 2-80],D or higher
16,CCOC(=O)c1cn(-c2nc3ccccc3n2S(=O)(=O)CC)nc1I [Compound 2-81],D or higher
17,CCS(=O)(=O)n1c(-n2cc(C(=O)OC(C)(C)C)c(I)n2)nc2ccccc21 [Compound 2-82],D or higher
18,CCS(=O)(=O)n1c(-n2cc(C(=O)OC(C)(C)C)c(/C=C/C3CC3)n2)nc2ccccc21 [Compound 2-83],D or higher
19,CCS(=O)(=O)n1c(-n2cc(C(=O)OC(C)(C)C)c(CCC3CC3)n2)nc2ccccc21 [Compound 2-84],D or higher
